Results on six molecules are retold here after patent publication US9556237B2 (priority 2012, dated 2017).

One data set concerns RVFV-MP12. It counts as cell-based, Rift Valley fever virus.
The test system of the next data set is EBOV-eGFP. It counts as cell-based, Zaire ebolavirus.

Consider `CSCC[C@H](NC(=O)[C@H](CC(C)C)NC(=O)CNC(=O)[C@H](CO)NC(=O)[C@H](Cc1ccccc1)NC(=O)[C@H](Cc1c[nH]c2ccccc12)NC(=O)[C@H](CC(=O)O)NC(=O)[C@H](Cc1ccccc1)NC(=O)[C@H](Cc1ccccc1)NC(=O)[C@H](CC(N)=O)NC(=O)[C@@H](N)Cc1c[nH]c2ccccc12)C(=O)N[C@@H](CO)C(=O)N[C@@H](Cc1c[nH]c2ccccc12)C(=O)N[C@@H](Cc1ccccc1)C(=O)NCC(=O)NCC(=O)N1CCC[C@H]1C(=O)N[C@@H](CC(C)C)C(=O)N[C@@H](CCCCN)C(=O)O` [RVFV-6, WNFFDWFSGLMSWFGGPLK], for which the “impact on cell proliferation (MTT assay)” value with Vero E6 cells is listed as “little negative impact on cell proliferation”.
With FVGAAVSCDAAFLNLTGCY [RVFV-4], the “inhibition of RVFV-MP12 (plaque reduction), in words” value in the data set on RVFV-MP12 is “Only RVFV-5 demonstrated any inhibition”.
Same read-out and setting: under LGASSSRFTNWGSVSLSLD [RVFV-3] stands “Only RVFV-5 demonstrated any inhibition”.
Consider SGSWNFFDWFSGLMSWFGGPL [RVFV-10], for which, in the data set with EBOV-eGFP, the “inhibition of EBOV (GFP signal)” value is recorded as “strongly inhibit”.
As for WGCGCFNVNPSCLFVHTYL [RVFV-2], the “inhibition of RVFV-MP12 (plaque reduction), in words” value in the data set on RVFV-MP12 is on record as “Only RVFV-5 demonstrated any inhibition”.
Same read-out and setting: under YWTGSISPKCLSSRRCHLV [RVFV-1] stands “Only RVFV-5 demonstrated any inhibition”.
